Results reported in patent publication US20260060944A1, “PHARMACEUTICAL COMPOSITION AND USE THEREOF” (priority 2022, published 2026).

Key:
[1] = test system: human non-small cell lung cancer (A549) cell lines; test: Cell survival rate (MTS) of A549 cells; assay type: cell-based; settings: for reduction in survival rate: individually administered at concentrations ranging from 2 to 80 nM
Procedure: (§1) Human cancer cell lines, including non-small cell lung cancer (A549), glioblastoma (U87), glioblastoma (T98G), erythroleukemia type cell line (K-562), acute monocytic leukemia (THP-1), hepatocellular carcinoma (HepG2), colorectal cancer (HCT116), ovarian cancer (TOV-21G), triple-negative breast cancer (MDA-MB-231), or drug-resistant human breast cancer (MCF7-resistant), were cultured in media supplemented with 10% (v/v) fetal bovine serum (FBS) (Penicillin-Streptomycin Solution, ACE Biolabs, CC1009), glutamine-enriched Nutrient Mixture F-12 Ham Kaighn's Modification (F-12/K, SIGMA-ALDRICH, USA), and RPMI-1640 (HiMedia Laboratories LLC, USA). The cell lines were separately incubated in a 5% CO2 atmosphere at 37° C. using a controlled incubator (Astec-SCA-165DS).
(§2) Different cancer cell lines were seeded in 96-well plates and allowed to adhere for 24 hours. Cells were then treated with combinations of three drugs, while untreated cells served as the control group. 20 μL of MTS reagent (Promega, USA) was added to each well and incubated at 37° C. for one hour. Optical density (OD) was measured at 490 nm using an ELISA detector (BioTek EPOCH2) to evaluate the ell viability and proliferation by using the following formula: […]
(§3) In some embodiments of the present invention, drug concentrations used for testing cancer cell lines is in nM and the effective dose range ranged from 0.8 nM to 83 nM.
To evaluate whether the pharmaceutical composition containing various pharmacologically active ions could produce synergistic drug effects, tests were conducted on human non-small cell lung cancer (A549) cell lines. The dose units in Table 2 are expressed in nM. The pharmacologically active ion used in this study was gluconate ion.
To evaluate whether varying dosages of the pharmaceutical composition of the present invention could inhibit the survival rate of human non-small cell lung cancer cell line (A549), cell survival analyses of A549 were conducted.
In this experiment, the pharmacologically active copper ion was cupric in the form of copper gluconate.

[2] = test system: glioblastoma (T98G) cell line; test: Cell survival rate (MTS) of T98G cells; assay type: cell-based, Human
Procedure: as §1, §2, §3
To evaluate the inhibitory effect of the pharmaceutical composition of the present invention on the survival rate of glioblastoma (T98G) cell line, analysis on survival rate was performed.
The active copper ion used in this study was copper gluconate.

[3] = test system: glioblastoma (U-87) cell line; test: Cell survival rate (MTS) of U-87 cells; assay type: cell-based, Human
Procedure: as §1, §2, §3
To evaluate the inhibitory effect of the pharmaceutical composition of the present invention on the survival rate of glioblastoma (U-87) cell line, analysis on survival rate was performed.
The active copper ion used in this study was copper gluconate. […] Using the pharmaceutical composition, the concentrations could be reduced while achieving a higher inhibition rate.

[4] = test system: human non-small cell lung cancer (A549) cell line; test: In vivo tumor suppression, A549 subcutaneous tumor model in nude mice; design: species or system Balb/c nude mice; settings: A549 tumors in nude mice; for Tumor Weight: after sacrifice
From the text: (§4) Female, 5-week-old Balb/c CAnN.Cg-Foxnlnu/CrlNarl nude mice were obtained from the National Laboratory Animal Center. […] Experiments commenced when they reached six weeks of age.
(§5) Nude mice of six weeks of age were used to establish two lung epithelial carcinoma and animal models. 1×10^7 cells of Human non-small cell lung cancer (NSCLC) cell line A549 and of human lung squamous carcinoma cell line H520, provided by the Food Industry Research and Development Institute in Taiwan, were subcutaneously injected 100 μL into the dorsal area near the right hind limb.
A549 model: 6 mice per group, administered orally once daily for 25 days.
(§6) H520 model: 7 mice per group, administered orally once daily for 13 days. The pharmacologically active multivalent ions used were copper ions in the form of copper gluconate.
(§7) Tumor volume was measured weekly using a tumor measurement device (TM900, Peira, Turnhout, Belgium). After five weeks of drug administration, the mice were sacrificed, and tumors were excised from the right hind limb. Tumor volume was calculated based on the longest and shortest diameters using the formula: […]
(§8) The tumors were then weighed and recorded. Tumor inhibition rates were calculated using the control group as a baseline: […]
A tumor model was established in nude mice via subcutaneous injection. Tumor size was monitored for 14 days, after which the mice were divided into six groups and treated with the pharmaceutical composition. The pharmaceutical-using group continued to be fed the test drug by oral gavage.

[5] = test system: human lung squamous cell carcinoma (H520) cell line; test: In vivo tumor suppression, H520 subcutaneous tumor model in nude mice; design: species or system Balb/c nude mice; settings: H520 tumors in nude mice
From the text: as §4, §5, §6, §7, §8
A tumor model was established in nude mice via subcutaneous injection. Tumor size was measured over 14 days, after which the mice were then divided into six groups and treated with the pharmaceutical composition. The pharmaceutical-using group continued to be fed the test drug by oral gavage. Due to the rapid growth rate of H520 tumors in vivo, animals were sacrificed when tumors reached a specific size. Tumor model nude mice were sacrificed after 13 days of administration to evaluate changes in tumor growth and observe the inhibitory effect of the test drug on tumors.

[6] = test system: human lung squamous cell carcinoma (H520) cell line; test: as above; design: species or system Balb/c nude mice; settings: H520 tumors in nude mice, oral once daily
[7] = oral once daily for 25 days, when sacrificed
[8] = oral once daily, Day 7 of administration
[9] = oral once daily for 13 days, when sacrificed

With copper gluconate [cupric] the “reduction in survival rate” value [1] was “no significant reduction in survival rate”, the “Survival Rate (%)” value ([1]; single agent 1 nM (Table 2)) was 103.70% and the “Survival Rate (%)” value ([1]; single agent 80 nM (Table 3)) was 109.28%. For the same compound, the “Survival Rate (%)” value ([2]; single agent 16 nM) was 102.03%, the “Survival Rate (%)” value ([2]; single agent 41 nM) was 102.19% and the “Survival Rate (%)” value ([2]; single agent 83 nM) was 98.35%. The “Survival Rate (%)” value ([3]; single agent 16 nM) was 103.71%, the “Survival Rate (%)” value ([3]; single agent 41 nM) was 103.97% and the “Survival Rate (%)” value ([3]; single agent 83 nM) was 101.73%.

For [Fe+2] [ferrous], the “Survival Rate (%)” value ([1]; single agent 1 nM (Table 2)) was 106.27%.

With CCN(CC)C(=S)SSC(=S)N(CC)CC [Disulfiram] the “Survival Rate (%)” value ([1]; single agent 1 nM (Table 2)) was 99.58%, the “Survival Rate (%)” value ([1]; single agent 80 nM (Table 3)) was 93.85% and the “Survival Rate (%)” value ([2]; single agent 16 nM) was 96.37%. The “Survival Rate (%)” value ([2]; single agent 41 nM) was 97.27%, the “Survival Rate (%)” value ([2]; single agent 83 nM) was 96.15% and the “Survival Rate (%)” value ([3]; single agent 16 nM) was 102.66%. For the same compound, the “Survival Rate (%)” value ([3]; single agent 41 nM) was 101.02% and the “Survival Rate (%)” value ([3]; single agent 83 nM) was 63.98%.

In the case of [Mn+2] [manganese], the “Survival Rate (%)” value ([1]; single agent 1 nM (Table 2)) is reported as 104.35%.

COc1cc2ncnc(Nc3ccc(F)c(Cl)c3)c2cc1OCCCN1CCOCC1 [Group S4, Gefitinib] was tested, and the “Tumor Weight” value [4] was 0.197 g, the “Tumor Volume” value [4, 7] was 239.6 mm^3 and the “Tumor Volume” value [4, 8] was 54.2 mm^3. For the same compound, the “Tumor Volume” value ([4]; oral once daily, Day 11) was 69.5 mm^3, the “Tumor Volume” value ([4]; oral once daily, Day 14) was 82.0 mm^3 and the “Tumor Volume” value ([4]; oral once daily, Day 17) was 102.8 mm^3. For the same compound, the “Tumor Volume” value ([4]; oral once daily, Day 20) was 141.3 mm^3, the “Tumor Volume” value ([4]; oral once daily, Day 23) was 202.6 mm^3 and the “Tumor Weight” value ([5]; after sacrifice) was 0.981 g. For the same compound, the “Tumor Volume” value [5, 9] was 1653.1 mm^3, the “Tumor Volume” value ([5]; oral once daily, Day 7) was 506.4 mm^3 and the “Tumor Volume” value ([6]; Day 4 of administration) was 259.6 mm^3. For the same compound, the “Tumor Volume” value ([6]; Day 9) was 898.6 mm^3 and the “Tumor Volume” value ([6]; Day 11) was 1290.0 mm^3.

In the case of O=C(Nc1ccc([N+](=O)[O-])cc1Cl)c1cc(Cl)ccc1O [Niclosamide], the “reduction in survival rate” value [1] is reported as “no significant reduction in survival rate”, the “Survival Rate (%)” value ([1]; single agent 2 nM (Table 3)) is reported as 112.66% and the “Survival Rate (%)” value ([1]; single agent 6 nM (Table 2)) is reported as 98.00%. The “Survival Rate (%)” value ([2]; single agent 8 nM) was 92.50%, the “Survival Rate (%)” value ([2]; single agent 16 nM) was 87.87% and the “Survival Rate (%)” value ([3]; single agent 8 nM) was 89.33%. The “Survival Rate (%)” value ([3]; single agent 16 nM) was 88.60%, the “Tumor Weight” value [4] was 0.330 g and the “tumor volume inhibition rates compared to Group S1” value ([4]; at the time of sacrifice) was 12.78%. For the same compound, the “average tumor weight inhibition rates compared to Group S1” value ([4]; following sacrifice) was 13.5%, the “Tumor Volume” value [4, 7] was 396.1 mm^3 and the “Tumor Volume” value [4, 8] was 73.4 mm^3. For the same compound, the “Tumor Volume” value ([4]; oral once daily, Day 11) was 89.7 mm^3, the “Tumor Volume” value ([4]; oral once daily, Day 14) was 136.3 mm^3 and the “Tumor Volume” value ([4]; oral once daily, Day 17) was 179.6 mm^3. For the same compound, the “Tumor Volume” value ([4]; oral once daily, Day 20) was 219.0 mm^3, the “Tumor Volume” value ([4]; oral once daily, Day 23) was 319.8 mm^3 and the “Tumor Weight” value ([5]; after sacrifice) was 0.955 g. For the same compound, the “average tumor weight inhibition rates compared to Group S1” value ([5]; after sacrifice) was 30.5%, the “tumor volume inhibition rates compared to Group S1” value ([5]; at the time of sacrifice) was 30.49% and the “Tumor Volume” value [5, 9] was 1604.3 mm^3. For the same compound, the “Tumor Volume” value ([5]; oral once daily, Day 7) was 538.8 mm^3, the “Tumor Volume” value ([6]; Day 4 of administration) was 269.6 mm^3 and the “Tumor Volume” value ([6]; Day 9) was 802.4 mm^3. For the same compound, the “Tumor Volume” value ([6]; Day 11) was 1204.1 mm^3.

In the case of [Mg] [magnesium], the “Survival Rate (%)” value ([1]; single agent 1 nM (Table 2)) is reported as 100.52%.

With [Zn+2] [zinc] the “Survival Rate (%)” value ([1]; single agent 1 nM (Table 2)) was 104.71%.

With [Ca] [calcium] the “Survival Rate (%)” value ([1]; single agent 1 nM (Table 2)) was 103.98%.
